Consider seven molecules from patent US9447120B2, “Crystalline forms of zinc trisodium pentetic acid” (Hameln Pharma Plus GmbH, priority 2013, dated 2016).

Data set [1] in a line: Determination of the hygroscopicity (weight increase in a stability chamber). The class given is physicochemical. The procedure: Here, the samples used were each subjected to the same pre-drying process (cf. Examples 3 and 4). The samples were exposed in each case for the time period stated in the Table at 25° C. and an air humidity of 65% relative air humidity.
The hygroscopicity of Zn-DTPA was checked by measuring the weight increase in a controlled environment. At air temperature (25±2°) C. and (60±5)% air humidity in a stability chamber (Thermo TEC), the weights of two samples (5.000 g) in each case were checked (Analytical balance, XS 205, Mettler Toledo). The weight was checked after 1, 2, 4, 6, 8, 24 and 48 hours.

The conditions of data set [2]: lyophilized powder, over 24 h; cited from earlier work.
The mark [3] stands for this setting: Table 6, time 1 h, 25° C., 65% relative air humidity.
Where [4] appears, read: Table 6, time 2 h, 25° C., 65% relative air humidity.
Setting [5] is: Table 6, time 4 h, 25° C., 65% relative air humidity.
The mark [6] stands for this setting: Table 6, time 6 h, 25° C., 65% relative air humidity.
[7] abbreviates: Table 6, time 8 h, 25° C., 65% relative air humidity.
[8] abbreviates: Table 6, time 24 h, 25° C., 65% relative air humidity.
Where [9] appears, read: Table 6, time 48 h, 25° C., 65% relative air humidity.

As for `O=C([O-])CN(CCN(CC(=O)[O-])CC(=O)[O-])CCN(CC(=O)[O-])CC(=O)[O-].[Na+].[Na+].[Na+].[Zn+2]` [conventional Zn-DTPA, trisodium zinc diethylenetriaminepentaacetate], in data set [1] (sufficiently long exposure to air humidity), the “behaviour due to hygroscopy” value was “deliquesces”.
Turning to `O=C([O-])CN(CCN(CC(=O)[O-])CC(=O)[O-])CCN(CC(=O)[O-])CC(=O)[O-].[Na+].[Na+].[Na+].[Zn+2]` [Form II, A, trisodium zinc diethylenetriaminepentaacetate], the Mean mass increase in data set [1] (setting [3]) was found to be 0.34%; in data set [1] (setting [4]), 0.57%; in data set [1] (setting [5]) it was 1.00%; in data set [1] (setting [6]) it was 1.49%; in data set [1] (setting [7]), 1.84%; in data set [1] (setting [8]) it was 4.42%. The molecule also gave a Mean mass increase in data set [1] (setting [9]) of 5.07%.
For `O=C([O-])CN(CCN(CC(=O)[O-])CC(=O)[O-])CCN(CC(=O)[O-])CC(=O)[O-].[Na+].[Na+].[Na+].[Zn+2]` [Form I, trisodium zinc diethylenetriaminepentaacetate], the Mean mass increase in data set [1] (setting [3]) is given as 0.32%; in data set [1] (setting [4]), 0.54%; in data set [1] (setting [5]), 0.92%; in data set [1] (setting [6]), 1.34%; in data set [1] (setting [7]), 1.64%; in data set [1] (setting [8]), 3.91%. In data set [1] (setting [9]), this molecule came in with a Mean mass increase of 6.81%.
For the molecule `O=C([O-])CN(CCN(CC(=O)[O-])CC(=O)[O-])CCN(CC(=O)[O-])CC(=O)[O-].[Na+].[Na+].[Na+].[Zn+2]` [Amorph I, trisodium zinc diethylenetriaminepentaacetate], the Mean mass increase in data set [1] (Table 1, time 1 h, product obtained by prior-art route, listed as Batch 1) turned out to be 0.51%; in data set [1] (Table 1, time 2 h, product obtained by prior-art route, listed as Batch 1) it was 0.89%; in data set [1] (Table 1, time 4 h, product obtained by prior-art route, listed as Batch 1) it was 1.56%; in data set [1] (Table 1, time 6 h, product obtained by prior-art route, listed as Batch 1), 2.35%; in data set [1] (Table 1, time 8 h, product obtained by prior-art route, listed as Batch 1) it was 2.95%; in data set [1] (Table 1, time 24 h, product obtained by prior-art route, listed as Batch 1), 7.38%. Further, the Mean mass increase turned out to be 11.92% in data set [1] (Table 1, time 48 h, product obtained by prior-art route, listed as Batch 1); 0.51% in data set [1] (setting [3]); 0.89% in data set [1] (setting [4]); 1.56% in data set [1] (setting [5]); 2.35% in data set [1] (setting [6]); 2.95% in data set [1] (setting [7]). The Mean mass increase in data set [1] (setting [8]) is reported as 7.38%; in data set [1] (setting [9]), 11.92%.
Regarding `O=C([O-])CN(CCN(CC(=O)[O-])CC(=O)[O-])CCN(CC(=O)[O-])CC(=O)[O-].[Na+].[Na+].[Na+].[Zn+2]` [Amorph Il, trisodium zinc diethylenetriaminepentaacetate], the Mean mass increase is given as 0.56% in data set [1] (Table 1, time 1 h, product obtained by prior-art route, listed as Batch 2); 0.97% in data set [1] (Table 1, time 2 h, product obtained by prior-art route, listed as Batch 2); 1.73% in data set [1] (Table 1, time 4 h, product obtained by prior-art route, listed as Batch 2); 2.61% in data set [1] (Table 1, time 6 h, product obtained by prior-art route, listed as Batch 2); 3.26% in data set [1] (Table 1, time 8 h, product obtained by prior-art route, listed as Batch 2); 7.82% in data set [1] (Table 1, time 24 h, product obtained by prior-art route, listed as Batch 2). Also, the Mean mass increase was determined as 12.02% in data set [1] (Table 1, time 48 h, product obtained by prior-art route, listed as Batch 2); 0.56% in data set [1] (setting [3]); 0.97% in data set [1] (setting [4]); 1.73% in data set [1] (setting [5]); 2.61% in data set [1] (setting [6]); 3.26% in data set [1] (setting [7]). Moreover, the Mean mass increase in data set [1] (setting [8]) is on record as 7.82%; in data set [1] (setting [9]), 12.02%.
On to `O=C([O-])CN(CCN(CC(=O)[O-])CC(=O)[O-])CCN(CC(=O)[O-])CC(=O)[O-].[Na+].[Na+].[Na+].[Zn+2]` [Zn-DTPA, trisodium zinc diethylenetriaminepentaacetate], for which the water absorbed result in data set [2] is on record as “more than 10 % by weight”.
Consider `O=C([O-])CN(CCN(CC(=O)[O-])CC(=O)[O-])CCN(CC(=O)[O-])CC(=O)[O-].[Na+].[Na+].[Na+].[Zn+2]` [Form II, B, trisodium zinc diethylenetriaminepentaacetate], for which the Mean mass increase is recorded as 0.41% in data set [1] (setting [3]); 0.72% in data set [1] (setting [4]); 1.29% in data set [1] (setting [5]); 1.97% in data set [1] (setting [6]); 2.43% in data set [1] (setting [7]); 5.18% in data set [1] (setting [8]). The same molecule yielded a Mean mass increase in data set [1] (setting [9]) of 5.25%.
